Measured values taken from ChEMBL document CHEMBL3137667, “[Drug-induced liver injury; fourteenth updated edition of the bibliographic database of liver injuries and related drugs]” (Gastroenterol Clin Biol, 2004).

Experiments:
[1] = human
[2] = human; remark: listed apart in the source
[3] = human; remark: listed apart in the source
[4] = human, serum, 4383 h
[5] = Highest frequency of moderate liver toxicity observed during clinical trials, expressed as a percentage. [column '% BIOL' in source]; details: human
[6] = Highest frequency of acute liver toxicity observed during clinical trials, expressed as a percentage. [column '% AIGUE' in source]; details: human
[7] = human; remark: listed apart in the source
[8] = human; remark: listed apart in the source
[9] = human; remark: listed apart in the source
[10] = human; remark: listed apart in the source
[11] = human, serum
[12] = human, serum; remark: listed apart in the source
[13] = human; remark: listed apart in the source
[14] = human; remark: listed apart in the source
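Wherever Hepatotoxicity (association with vascular disease) is given: count of indexed literature references reporting vascular liver injury in humans, e.g. peliosis hepatitis, hepatic veno-occlusive disease or Budd-Chiari syndrome.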
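Wherever Hepatotoxicity (benign tumour) is given: value is a count of indexed literature references citing a benign tumour confirmed by histopathology.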
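Wherever Hepatotoxicity (choleostasis) is given: human cholestatic liver injury, shown by histopathology or by peak ALT or AST elevation over alkaline phosphatase ratio below 2, value counts indexed literature reports.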
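Wherever Hepatotoxicity (chronic liver disease) is given: chronic liver injury confirmed by histopathology or persistently raised serum aminotransferase activity beyond 6 months, value given as the count of indexed literature references.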
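Wherever Hepatotoxicity (cirrhosis) is given: value is a count of indexed literature references reporting cirrhosis confirmed by histopathology.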
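Wherever Hepatotoxicity (cytolytic) is given: human cytolytic liver injury, shown by histopathology or by a ratio above 5 of peak ALT or AST elevation to alkaline phosphatase elevation, value counts indexed references.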
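Wherever Hepatotoxicity (granulomatous hepatitis) is given: value is a count of indexed literature references reporting granulomatous liver disease confirmed by histopathology.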
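Wherever Hepatotoxicity (malignant tumour) is given: malignant tumour confirmed by histopathology, value gives the count of indexed literature references reporting it.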
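Wherever Hepatotoxicity (severe hepatitis) is given: human clinical data: severe hepatitis, meaning potentially life-threatening liver failure or clinically observed cases, the value counts how many indexed literature references report it.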
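Wherever Hepatotoxicity (steatosis) is given: steatosis confirmed by histopathology, value is the count of indexed references.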

| SMILES | Hepatotoxicity (cirrhosis) [1] | Hepatotoxicity (benign tumour) [2] | Hepatotoxicity (severe hepatitis) [3] | Hepatotoxicity (chronic liver disease) [4] | Hepatotoxicity (moderate) [5] | Hepatotoxicity (acute) [6] | Hepatotoxicity (choleostasis) [7] | Hepatotoxicity (steatosis) [8] | Hepatotoxicity (association with vascular disease) [9] | Hepatotoxicity (granulomatous hepatitis) [10] | Hepatotoxicity (moderate) [11] | Hepatotoxicity (acute) [12] | Hepatotoxicity (cytolytic) [13] | Hepatotoxicity (malignant tumour) [14] |
| --- | --- | --- | --- | --- | --- | --- | --- | --- | --- | --- | --- | --- | --- | --- |
| CO/N=C(\C(=O)N[C@@H]1C(=O)N2C(C(=O)[O-])=C(C[n+]3ccc(N)n3CCO)CS[C@H]12)c1csc(N)n1 [CEFOSELIS] | 0 | 0 | 0 | 0 | 25% | 0% | 0 | 0 | 0 | 0 | 33 | 0 | 0 | 0 |
| O=C1NCCN1c1ncc([N+](=O)[O-])s1 [NIRIDAZOLE] | 0 | 0 | 0 | 0 | 0% | 0% | 0 | 0 | 0 | 0 | 2 | 0 | 0 | 0 |
| CCN[C@@H]1C[C@H](N)[C@@H](O[C@H]2OC(CN)=CC[C@H]2N)[C@H](O)[C@H]1O[C@H]1OC[C@](C)(O)[C@H](NC)[C@H]1O [NETILMICIN] | 0 | 0 | 0 | 0 | 29.4% | 0% | 0 | 0 | 0 | 0 | 5 | 0 | 0 | 0 |
| O=C1NC(=S)NC(=O)C1C(=O)Nc1ccccc1 [MERBARONE] | 0 | 0 | 0 | 0 | 28.6% | 3.8% | 0 | 0 | 0 | 0 | 3 | 1 | 0 | 0 |
| O=C(O)Cc1nn(Cc2nc3cc(C(F)(F)F)ccc3s2)c(=O)c2ccccc12 [ZOPOLRESTAT] | 0 | 0 | 0 | 0 | 11.6% | 0% | 0 | 0 | 0 | 0 | 1 | 0 | 0 | 0 |
| CC(C)/N=C/Nc1ccc(-c2c[nH]cn2)cc1 [MIFENTIDINE] | 0 | 0 | 0 | 0 | 3.3% | 0% | 0 | 0 | 0 | 0 | 1 | 0 | 0 | 0 |
| COc1cc2[nH]c(C)c(CCN3CCN(c4ccccc4)CC3)c2cc1OC [OXYPERTINE] | 0 | 0 | 0 | 0 | 0% | 0% | 0 | 0 | 0 | 0 | 1 | 0 | 0 | 0 |
| CCOC(=O)C1=C[C@@H](OC(CC)CC)[C@H](NC(C)=O)[C@@H](N)C1 [OSELTAMIVIR] | 0 | 0 | 0 | 0 | 0% | 0% | 0 | 0 | 0 | 0 | 0 | 1 | 0 | 0 |
| O=C(O[C@@H]1C[C@@H]2C[C@H]3C[C@H](C1)N2CC3=O)c1c[nH]c2ccccc12 [DOLASETRON] | 0 | 0 | 0 | 0 | 6.7% | 0% | 0 | 0 | 0 | 0 | 1 | 0 | 0 | 0 |
